In assay [1] the target is T1, human CA I (Homo sapiens, UniProt P00915). Details: made in house; method as in PMID 22077347. The following applies: read-out: inhibition of hCAI; cited from earlier work.
For assay [2], the target named is T2, human CA II (Homo sapiens, UniProt P00918). Details: made in house; method as in PMID 22077347. The conditions noted are these: read-out: inhibition of hCAII; cited from earlier work.
The next assay relates to HeLa (cervix). As to the kind of experiment: antiproliferative assay (NCI protocol), HeLa. The class given is cell-based, human. The following applies: Homo sapiens, HeLa; antiproliferative activity. On the procedure:
(§1) The antiproliferative assays were conducted following the protocol of the US National Cancer Institute (NCI), with minor modifications.
(§2) The coumarin-benzoxazole hybrids were also tested as antiproliferative agents against a panel of six human solid tumour cell lines (Table 2): A549 (non-small cell lung), HBL-100 (breast), HeLa (cervix), SW1573 (non-small cell lung) as examples of drug-sensitive lines, and T-47D (breast) and WiDr (colon) as multidrug-resistant lines. A non-tumour cell line (BJ-hTert, human fibroblasts) was also used for analysing the selectivity. Chemotherapeutic agents 5-fluorouracyl (5-FU) and cisplatin (CDDP) were included in the study as drug references.

Assay [3] has as its target T2, human CA II. As to the kind of experiment: stopped-flow CO2 hydrase assay, CA II.
From the text: (§3) A stopped-flow CO2 hydrase assay has been employed as reported earlier[10–12].
The test system of another assay is T-47D (breast). The assay is described as follows: antiproliferative assay (NCI protocol), T-47D. The class given is cell-based, human. The conditions noted are these: Homo sapiens, T47D; antiproliferative activity, multidrug-resistant line. On the procedure: as §1, §2
Assay [4] has as its target T1, human CA I. As to the kind of experiment: stopped-flow CO2 hydrase assay, CA I.
From the text: as §3
Assay [5] deals with SW1573 (non-small cell lung). The assay is described as follows: antiproliferative assay (NCI protocol), SW1573. The class given is cell-based, human. The conditions noted are these: Homo sapiens, SW1573; antiproliferative activity. On the procedure: as §1, §2
In another assay the target is human CA XII (Homo sapiens, UniProt O43570). The assay is described as follows: stopped-flow CO2 hydrase assay, CA XII. The conditions noted are these: for Selectivity ratio I/XII: ratio of Ki CA I / CA XII; for Selectivity ratio II/XII: ratio of Ki CA II / CA XII.
The test system of assay [6] is panel of six human solid tumour cell lines. The assay is described as follows: antiproliferative assay, whole panel of tumour cell lines. The class given is cell-based. On the procedure: as §1, §2
For assay [7], the system named is BJ-hTert, human fibroblasts. As to the kind of experiment: antiproliferative assay (NCI protocol), non-tumour BJ-hTert. The class given is cell-based. The following applies: Fibroblast; non-tumour cell line, human fibroblasts. On the procedure: as §1, §2
Another assay relates to WiDr (colon). The assay is described as follows: antiproliferative assay (NCI protocol), WiDr. The class given is cell-based, human. The conditions noted are these: Homo sapiens, WiDr; antiproliferative activity, multidrug-resistant line. On the procedure: as §1, §2
Assay [8] deals with A549 (non-small cell lung). As to the kind of experiment: antiproliferative assay (NCI protocol), A549. The conditions noted are these: Homo sapiens, A549; antiproliferative activity. The class given is cell-based, human. On the procedure:
as §1, §2

In the next assay the target is human CA IV (Homo sapiens, UniProt P22748). As to the kind of experiment: stopped-flow CO2 hydrase assay, CA IV.
The next assay addresses human CA VII (Homo sapiens, UniProt P43166). The assay is described as follows: stopped-flow CO2 hydrase assay, CA VII.
The next assay deals with human CA IX (Homo sapiens, UniProt Q16790). The assay is described as follows: stopped-flow CO2 hydrase assay, CA IX. The following applies: for Selectivity ratio I/IX: ratio of Ki CA I / CA IX; for Selectivity ratio II/IX: ratio of Ki CA II / CA IX.
For a further assay, the system named is HBL-100 (breast). The assay is described as follows: antiproliferative assay (NCI protocol), HBL-100. The class given is cell-based, human. The following applies: Homo sapiens, HBL-100; antiproliferative activity. On the procedure: as §1, §2

Read-outs that look alike come from different tables or passages of the source. Some results are limits rather than exact numbers.

A word on the GI50: it is the concentration that inhibits growth by half. A high value points to lower sensitivity of the cells.

Sequence of human CA XII (O43570 25-354): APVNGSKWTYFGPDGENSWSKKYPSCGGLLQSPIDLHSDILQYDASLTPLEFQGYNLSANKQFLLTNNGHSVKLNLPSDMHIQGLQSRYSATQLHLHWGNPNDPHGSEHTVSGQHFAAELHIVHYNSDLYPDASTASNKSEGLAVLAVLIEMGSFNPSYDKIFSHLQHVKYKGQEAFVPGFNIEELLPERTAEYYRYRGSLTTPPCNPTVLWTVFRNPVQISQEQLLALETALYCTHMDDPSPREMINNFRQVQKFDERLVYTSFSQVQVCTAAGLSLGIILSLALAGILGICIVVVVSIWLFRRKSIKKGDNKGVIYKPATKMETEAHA
T1 sequence (P00915 whole entry): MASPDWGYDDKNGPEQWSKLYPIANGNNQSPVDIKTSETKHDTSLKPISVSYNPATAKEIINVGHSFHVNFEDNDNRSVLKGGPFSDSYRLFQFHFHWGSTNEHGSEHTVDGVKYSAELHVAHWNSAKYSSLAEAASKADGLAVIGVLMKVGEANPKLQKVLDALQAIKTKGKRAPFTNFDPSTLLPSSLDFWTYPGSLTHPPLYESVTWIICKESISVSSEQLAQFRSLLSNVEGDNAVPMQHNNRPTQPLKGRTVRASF
Sequence of human CA IV (P22748 19-312): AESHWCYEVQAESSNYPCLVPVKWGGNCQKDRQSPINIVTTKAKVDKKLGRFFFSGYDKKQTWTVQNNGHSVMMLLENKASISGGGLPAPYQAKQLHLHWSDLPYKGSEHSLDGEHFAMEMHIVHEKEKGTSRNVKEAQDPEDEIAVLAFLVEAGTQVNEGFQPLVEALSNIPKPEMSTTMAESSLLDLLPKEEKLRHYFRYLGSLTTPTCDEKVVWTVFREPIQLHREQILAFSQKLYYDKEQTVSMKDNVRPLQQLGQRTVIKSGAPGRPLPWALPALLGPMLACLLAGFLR
Sequence of human CA VII (P43166 whole entry): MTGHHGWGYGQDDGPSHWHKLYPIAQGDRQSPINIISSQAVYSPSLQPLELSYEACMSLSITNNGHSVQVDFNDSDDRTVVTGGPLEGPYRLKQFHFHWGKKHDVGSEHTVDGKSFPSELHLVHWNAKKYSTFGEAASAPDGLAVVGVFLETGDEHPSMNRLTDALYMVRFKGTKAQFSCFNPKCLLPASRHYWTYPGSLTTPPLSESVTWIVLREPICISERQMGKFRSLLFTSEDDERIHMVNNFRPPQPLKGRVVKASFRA
From the text for human CA IV: as §3
From the text for human CA IX: as §3
From the text for human CA VII: as §3
From the text for human CA XII: as §3

As for `Cc1cc(=O)oc2cc(O)ccc12` [Compound 3a, 4-methylumbelliferone], the Ki at human CA I [1] and at human CA II [2] was over 100 µM in each case.
Take `O=c1cc(-c2ccccc2)c2ccc(OCCCCCCNc3nc4ccccc4o3)cc2o1` [Compound 8f]: the 50% growth inhibitory concentration (GI50) (in the assay with HeLa (cervix); in the assay with T-47D (breast); in assay [5]; in assay [7]; in the assay with WiDr (colon); in assay [8]) was over 100 µM in each case. Besides, in the assay on HBL-100 (breast), the concentration for 50% growth inhibition (GI50) is over 100 µM. Also, the Ki is over 10 µM at human CA II [3]; over 10 µM at human CA I [4]; 0.316 µM at human CA XII; 0.808 µM on human CA IV; over 10 µM on human CA VII; 0.271 µM on human CA IX. The “Selectivity ratio I/XII” value at human CA XII is listed as over 31.6. Moreover, the “Selectivity ratio II/XII” value on human CA XII was over 31.6. In addition, the “impairment of inhibition of CA XII compared to Me-counterpart 8c” value on human CA XII (versus 8c) is listed as 5 fold. Also, the “antiproliferative activity against all cell lines (in words)” value in assay [6] is on record as “completely abolished activity against all cell lines”. At human CA IX, the “Selectivity ratio I/IX” value is given as over 36.9. Also, on human CA IX, the “Selectivity ratio II/IX” value is given as over 36.9. Also, the “impairment of inhibition of CA IX compared to Me-counterpart 8c” value on human CA IX (versus 8c) is given as 3 fold.
With `Cc1ccc2oc(NCCCCCOc3ccc4c(C)cc(=O)oc4c3)nc2c1` [Compound 8g], the concentration for 50% growth inhibition (GI50) (in the assay with HeLa (cervix); in the assay with T-47D (breast); in [5]; in [7]; with WiDr (colon); in assay [8]) was over 100 µM each time. The compound also came in with a GI50 in the assay on HBL-100 (breast) of over 100 µM. Further, the Ki on human CA II [3] was over 10 µM; at human CA I [4], over 10 µM; on human CA XII, 0.0673 µM; on human CA IV it was 0.762 µM; at human CA VII it was over 10 µM; at human CA IX, 0.417 µM. For the same compound, at human CA XII, the “Selectivity ratio I/XII” value is over 148.6. Further, on human CA XII, the “Selectivity ratio II/XII” value is given as over 148.6. Besides, the “antiproliferative activity against all cell lines (in words)” value in [6] is given as “completely abolished activity against all cell lines”. In addition, the “Selectivity ratio I/IX” value at human CA IX is reported as over 24.0. Also, at human CA IX, the “Selectivity ratio II/IX” value is listed as over 24.0. On human CA IX (versus 8b), the “decreased activity against CA IX compared to non-substituted counterpart 8b” value is listed as 6 fold.

These data come from article PMC8667885, “2-Aminobenzoxazole-appended coumarins as potent and selective inhibitors of tumour-associated carbonic anhydrases” (Journal of Enzyme Inhibition and Medicinal Chemistry, 2021).
